Data as given in patent publication US9657024B2, “Substituted triazolo-pyrimidine compounds for modulating cell proliferation, differentiation and survival” (STATegics, Inc., priority 2012, dated 2017).

Experiments:
[1] = test system: PC12 cells; test: PC12 cell survival under serum deprivation (CellTiter-Glo); assay type: cell-based, rat; details: 72 hours; for minimal effective concentration: Rattus norvegicus, PC-12, NS = RLU increased <25% at 5 uM, read-out: PC12 cell proliferation (CellTiter-Glo ®) Concentration at which RLU increased >25% compared to medium control
Method: Each culture condition was performed in quadruplicate in each experiment and the mean values were calculated. The results represent mean±SEM of relative light unit values when compared to the mean values obtained in the presence of the medium alone. A total of 13 experiments were performed and the statistical significance was analyzed using GraphPad Prism software using ANOVA, followed by paired t-test. The symbol * indicates P-values<0.01.
PC12 cells were cultured in DMEM supplemented with 10% fetal calf serum and 5% horse serum. […] Cell viability was analyzed by CellTiter-Glo® reagent (Promega).
PC12 cells were cultured in DMEM supplemented with 10% fetal calf serum and 5% horse serum. […] Cell survival of the serum-starved cells was analyzed by CellTiter-Glo® reagent luminescence reading.
FIG. 2 illustrates neuroprotective effects of Compounds 1-5 when tested in PC12 cell protection assays. PC12 cells were subjected to serum deprivation as described under FIG. 1.
PC12 cells were cultured in DMEM supplemented with 10% fetal calf serum and 5% horse serum. […] Cell survival of the serum-starved cells was analyzed by CellTiter-Glo® reagent luminescence reading (relative light units, “RLU”). […] “NS” indicates RLU increased <25% when compounds were tested at 5 uM.

[2] = test system: primary dopaminergic neurons; test: Protection of primary dopaminergic neurons from 6-OHDA (THir neurons); assay type: cell-based, rat; details: 6.25 uM 6-OHDA 40 minute
Method: Dissociated embryonic D14 rat ventral mesencephalic cells were used.
Dopaminergic neurons play a key role in the pathogenesis of Parkinson's disease and compounds enhancing survival of these cells have significant therapeutic potential. Dissociated embryonic D14 rat ventral mesencephalic cells were used to test the potential of EPO mimetic compounds to protect primary dopaminergic neurons. […] The cells were plated in 48-well poly-D-lysine coated plates using a microisland technique. The microislands were seeded into dry plates in 10 uL aliquots of 3000 cells/uL and incubated at 37° C. for 1 h to allow for adhesion. […] On day 3, the medium was replaced with 6.25 uM 6-hydroxydopamine (6-OHDA, Sigma) for a 40 minute incubation. The toxin was then removed and the cells were cultured for an additional 2 days. On day 5, the cells were fixed, permeabilized and stained for tyrosine hydroxylase-immunoreactive (THir) neurons.

[3] = test system: human CD34+ hematopoietic stem cells; test: Erythroid differentiation of human CD34+ cells (CD235a, flow cytometry); assay type: cell-based; details: eleven days in culture
Method: (§1) Compound 10 was tested at different concentrations for its ability to induce proliferation and differentiation of human CD34+ hematopoietic stem cells. Human CD34+ cells were purified by (FIG. 6A) immunomagnetic beads (>90% purity, purchased from Stem Cell Technologies) or (FIG. 6B) cell sorting (at Blood Systems Research Institute) and the cells were cultured in the presence of compounds for eight (FIG. 6A) or eleven (FIG. 6B) days. (FIG. 6A) The level of cell growth and survival was measured based on ATP levels (CellTiterGlo reagent), or (FIG. 6B) the expression level of CD235a was analyzed by flow cytometry as a marker for cell maturation. Cell survival was analyzed using the CellTiterGlo reagent to measure ATP levels as a marker of metabolically active cells that have not undergone apoptosis, and expression of CD235a as a marker of erythroid cell differentiation and as a specific marker for EPO-like erythropoietic activity.

[4] = test system: human CD34+ hematopoietic stem cells; test: Proliferation of human CD34+ cells (ATP, CellTiterGlo); assay type: cell-based; details: eight days in culture
Method: as §1

[5] = test system: frataxin; test: Frataxin protein levels in primary human fetal neurons (ELISA); assay type: cell-based; details: 28 days in culture, 24 h, relative to total protein
Method: The effects of the compounds on frataxin protein levels in cells were analyzed. […] Embryonic mouse cell line P19 was differentiated into neuronal cells in the presence of retinoic acid and frataxin levels were measured (FIG. 4A). Frataxin levels were measured after 24 h by multi-species frataxin-ELISA (MitoSciences) and compared to total protein levels. The data represent mean+SEM. Primary human fetal neurons (28 days in culture) were also incubated for 24 h in the presence of the compounds, and human frataxin levels were measured by ELISA (MitoSciences) and compared to total protein levels (FIG. 4B). The data represent mean+SEM of triplicate measurements. Compounds were also tested for their effects on frataxin levels in cells derived from patients with FRDA. Cultures of patient peripheral blood mononuclear cells (PBMCs) were also used to test the EPO mimetic compounds for frataxin enhancement in frataxin-deficient cells. Compound 1 and Compounds 5-6 enhanced frataxin levels in these patient cells at concentration 1 uM or lower.

[6] = molecular target: T1, EPO receptor (Homo sapiens, UniProt P19235); test: EPO receptor phosphorylation in primary human fetal neural cells (phospho-EPOR ELISA); assay type: cell-based; set-up: endogenous in cells; host or cells: primary human fetal neural cells from micro-dissected fetal brain tissue (Advanced Bioscience Resources, Inc.); details: 10 min incubation; for level of EPO receptor activation compared with recombinant human EPO: EPO 10 IU/ml
T1 sequence (P19235 25-508): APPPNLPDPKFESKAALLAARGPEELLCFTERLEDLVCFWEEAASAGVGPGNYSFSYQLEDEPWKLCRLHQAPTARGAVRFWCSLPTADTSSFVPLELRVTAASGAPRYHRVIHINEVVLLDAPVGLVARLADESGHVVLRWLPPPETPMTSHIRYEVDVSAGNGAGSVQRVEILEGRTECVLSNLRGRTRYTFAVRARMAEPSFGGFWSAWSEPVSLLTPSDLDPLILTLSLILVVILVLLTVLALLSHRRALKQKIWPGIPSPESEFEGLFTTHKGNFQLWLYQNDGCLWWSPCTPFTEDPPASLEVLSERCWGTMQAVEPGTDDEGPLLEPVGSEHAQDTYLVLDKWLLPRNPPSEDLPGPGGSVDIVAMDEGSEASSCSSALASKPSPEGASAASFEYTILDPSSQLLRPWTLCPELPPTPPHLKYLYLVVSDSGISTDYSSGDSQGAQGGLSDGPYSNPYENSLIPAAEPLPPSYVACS
Method: Primary micro-dissected fetal brain tissue was obtained from a commercial source (Advanced Bioscience Resources, Inc., Alameda, Calif.). Cultured primary human fetal neural cells (3 h, 1 day, 17 days, or 26 days in culture) were incubated with Compound 5, Compound 6, or controls for 10 min (FIG. 5A). Phospho-EPOR was detected by ELISA (R&D Systems). […] Human erythropoietic cell line TF-1 was cultured for 10 min in the presence of Compound 5, Compound 6, or the controls, and phospho-EPOR was detected by ELISA (R&D Systems). The data represent mean+SEM of triplicate cultures. […] The receptor activation results were consistent with functional cell based assays using primary human CD34+ bone marrow progenitor cells and erythroleukemia cell line TF-1.

[7] = test system: rats; test: Kidney and CNS protection in rats with DMA + Cremophor EL toxicity; assay type: in vivo, rat; details: DMA + CrEL 2.5 mL/kg each, IP
Method: High-dose N,N-dimethylacetamide (DMA)+ Cremophor EL (CrEL) (2.5 mL/kg each, IP) was used to induce acute CNS and organ toxicity, and the potential of Compound 5 to protect the rats was studied.

[8] = test system: TF-1 cells; test: TF-1 cell proliferation; assay type: cell-based, human; details: at concentrations that provided significant neuroprotective effects
[9] = molecular target: T1, EPO receptor; test: EPO receptor phosphorylation in TF-1 cells (phospho-EPOR ELISA); assay type: cell-based; set-up: endogenous in cells; host or cells: TF-1 human erythroleukemia cell line; details: TF-1, 10 min
Method: Primary micro-dissected fetal brain tissue was obtained from a commercial source (Advanced Bioscience Resources, Inc., Alameda, Calif.). Cultured primary human fetal neural cells (3 h, 1 day, 17 days, or 26 days in culture) were incubated with Compound 5, Compound 6, or controls for 10 min (FIG. 5A). Phospho-EPOR was detected by ELISA (R&D Systems). […] Human erythropoietic cell line TF-1 was cultured for 10 min in the presence of Compound 5, Compound 6, or the controls, and phospho-EPOR was detected by ELISA (R&D Systems). The data represent mean+SEM of triplicate cultures.

[10] = following intravenous administration; cited from earlier work
[11] = test system: frataxin; details: 8 FRDA patients, open label pilot trial; cited from earlier work
[12] = test system: frataxin; details: patients with chronic kidney disease, rhEPO infusion for anemia; cited from earlier work

Cc1cc(C)n2nc(SCCOc3ccc(Cl)cc3)nc2n1 [Example 1, 2-{[2-(4-chlorophenoxy)ethyl]sulfanyl}-5,7-dimethyl-[1,2,4]triazolo[1,5-a]pyrimidine]
effect on PC12 cell viability compared with rhEPO ([1]; compound at 1 uM, serum-free): at least a comparable effect on cell viability as rhEPO | level of PC12 cell protection compared with rhEPO at 10 U/ml ([1]; compound at 5 uM, serum-free): even higher level of protection than rhEPO | concentration at which significant protective effect on PC12 cells was observed ([1]; serum-free conditions): 1 µM | protection of dopaminergic neurons from 6-OHDA toxicity ([2]; 1 uM): significantly protected

Cc1cc(C)n2nc(SCCOc3ccc(F)c(Cl)c3)nc2n1 [Example 6, 2-{[2-(3-chloro-4-fluorophenoxy)ethyl]sulfanyl}-5,7-dimethyl-[1,2,4]triazolo[1,5-a]pyrimidine]
minimal effective concentration ([1]; serum-free conditions): < 5 µM

COc1ccc(NC(=O)CSc2nc3nc(C)cc(C)n3n2)cc1 [Example 10, 2-({5,7-dimethyl-[1,2,4]triazolo[1,5-a]pyrimidin-2-yl}sulfanyl)-N-(4-methoxyphenyl)acetamide]
erythroid differentiation (CD235a expression) [3]: differentiation into erythroid cells expressing CD235a | CD34+ progenitor cell proliferation (ATP levels) [4]: dose-dependent induction of CD34+ progenitor cell proliferation

Cc1cc(C)n2nc(OCCOc3ccc(Cl)cc3)nc2n1 [Example 11, 2-[2-(4-chlorophenoxy)ethoxy]-5,7-dimethyl-[1,2,4]triazolo[1,5-a]pyrimidine]
frataxin protein levels [5]: increased frataxin protein levels | EPO receptor phosphorylation [6]: increased EPO receptor phosphorylation in a dose-dependent manner | level of EPO receptor activation compared with recombinant human EPO [6]: comparable to that induced by recombinant human EPO | kidney-protective effect (hypoproteinemia in serum) [7]: reduced hypoproteinemia in serum | response to formalin injection [7]: normalized the response of the rats to formalin injection | proliferation of TF-1 cells [8]: did not induce proliferation of TF-1 cells | EPO receptor activation (phospho-EPOR) [9]: did not activate EPO receptor

Cc1cc(C)n2nc(OCCN(CCO)c3ccccc3)nc2n1 [Example 13, 2-{[2-({5,7-Dimethyl-[1,2,4]triazolo[1,5-a]pyrimidin-2-yl}oxy)ethyl](phenyl)amino}ethan-1-ol]
frataxin protein levels [5]: increased frataxin protein levels | EPO receptor phosphorylation [6]: increased EPO receptor phosphorylation in a dose-dependent manner | level of EPO receptor activation compared with recombinant human EPO [6]: comparable to that induced by recombinant human EPO | proliferation of TF-1 cells [8]: did not induce proliferation of TF-1 cells | EPO receptor activation (phospho-EPOR) [9]: did not activate EPO receptor

CCc1cc(CC)n2nc(CCCOc3ccc(Cl)cc3)nc2n1 [Example 28, 2-[3-(4-chlorophenoxy)propyl]-5,7-diethyl-[1,2,4]triazolo[1,5-a]pyrimidine]
minimal effective concentration ([1]; serum-free conditions): < 5 µM

rhEPO: recombinant human (rh)EPO, erythropoietin; positive control
concentration in human cerebrospinal fluid lower than in circulation [10]: more than 1000 fold | overall increase in frataxin in lymphocytes [11]: 24% | increase in frataxin levels in peripheral blood mononuclear cells [12]: 2-3 fold | protection of dopaminergic neurons from 6-OHDA toxicity ([2]; 10 IU/ml): significantly protected
